In patent publication US20200306211A1, “METHOD FOR ADAPTING DOSES OF COMBINATION THERAPIES” (Pharnext, priority 2015, published 2020):

Tested on: young and elderly healthy volunteers
Assay: Cognitive Event-Related Potentials (ERP) latency composite score, correlated with plasma drug concentrations
Assay type: in vivo, human
Settings: plasma concentration at 1.5 h in subjects with best ERP latencies composite score (ERP at Day 10, 6 h post-dose)
Description: The study below was a double blind placebo control study performed in accordance with the European Medicines Agency ICH-E6 (R1) guideline recommendations and the French law n° 2004-806, Aug. 9, 2004 relative to public health law. The study was a preliminary study whose one of the objectives was to assess baclofen and acamprosate combinatorial treatment to improve cognition in young and elderly healthy volunteers. The study was conducted on a cohort of 24 human subjects.
Briefly, the duration of treatment was of 10 days.
Electrophysiological measurement of Cognitive Event-Related Potentials (ERPs) were recorded to assess the cognitive performances of the subjects. ERPs are the electrophysiological response to a stimulus and could serve as a surrogate biological marker of cognitive performances. Here, the cognitive task required paying attention and to count odd stimuli according to a specific protocol. Potential is recorded during the test. An ERP latency composite score is determined from the different derivations. […]
A correlation was searched between each of the different endpoints (i.e. the cognitive tests, or the ERP latency composite score) and drug concentrations determined at each sampling time.
Pearson's correlation coefficient was determined for each of the endpoints and different plasmatic concentrations measured as a function of time.

Row | Compound | Most efficient plasmatic concentration in trial
1 | CC(=O)NCCCS(=O)(=O)O [acamprosate] | >2.5 ng/mL
2 | NCC(CC(=O)O)c1ccc(Cl)cc1 (centres unmarked) [baclofen] | ≥500 ng/mL
